Data taken from ChEMBL document CHEMBL3352652, “Oleanolic acid analogs as NO, TNF-α and IL-1β inhibitors: synthesis, biological evaluation and docking studies” (Bioorg Med Chem Lett, 2014).
pIC50: −log10 of the molar value. In brackets after ≈: the same amount, converted by molar mass.

Legend:
RAW264.7 [1] = test: Inhibition of LPS-induced NO production in mouse RAW264.7 cells compound preincubated for 1 hr before LPS treatment by Griess reaction; type: functional, cell-based
J774.A1 [2] = test: Inhibition of LPS-induced NO production in mouse J774A1 cells compound preincubated for 1 hr before LPS treatment by Griess reaction; type: functional, cell-based
RAW264.7 [3] = test: Cytotoxicity mouse RAW264.7 cells assessed as cell viability by MTT assay relative to control; type: cell-based
[4] = Cytotoxicity against mouse J774A1 cells assessed as cell viability by MTT assay relative to control; type: cell-based; details: J774.A1
RAW264.7 [5] = test: Inhibition of LPS-induced TNF-alpha release in mouse RAW264.7 cells compound preincubated at 20 ug/ml for 1 hr before LPS treatment measured after 6 to 12 hrs by sandwich immunoassay; type: functional
J774.A1 [6] = test: Inhibition of LPS-induced TNF-alpha release in mouse J774A1 cells compound preincubated at 20 ug/ml for 1 hr before LPS treatment measured after 6 to 12 hrs by sandwich immunoassay; type: functional
RAW264.7 [7] = test: Inhibition of LPS-induced IL1-beta release in mouse RAW264.7 cells compound preincubated at 20 ug/ml for 1 hr before LPS treatment measured after 6 to 12 hrs by sandwich immunoassay; type: functional
J774.A1 [8] = test: Inhibition of LPS-induced IL1-beta release in mouse J774A1 cells compound preincubated at 20 ug/ml for 1 hr before LPS treatment measured after 6 to 12 hrs by sandwich immunoassay; type: functional
RAW264.7 [9] = test: Inhibition of LPS-induced TNF-alpha release in mouse RAW264.7 cells compound preincubated for 1 hr before LPS treatment measured after 6 to 12 hrs by sandwich immunoassay; type: functional, cell-based
J774.A1 [10] = test: Inhibition of LPS-induced TNF-alpha release in mouse J774A1 cells compound preincubated for 1 hr before LPS treatment measured after 6 to 12 hrs by sandwich immunoassay; type: functional, cell-based
RAW264.7 [11] = test: Inhibition of LPS-induced IL1-beta release in mouse RAW264.7 cells compound preincubated for 1 hr before LPS treatment measured after 6 to 12 hrs by sandwich immunoassay; type: functional, cell-based
J774.A1 [12] = test: Inhibition of LPS-induced IL1-beta release in mouse J774A1 cells compound preincubated for 1 hr before LPS treatment measured after 6 to 12 hrs by sandwich immunoassay; type: functional, cell-based

pIC50 (RAW264.7 [1]) | pIC50 (J774.A1 [2]) | IC50 (RAW264.7 [9]) | IC50 (J774.A1 [10]) | IC50 (RAW264.7 [11]) | IC50 (J774.A1 [12]) | SMILES | pIC50 (RAW264.7 [3]) | pIC50 [4] | inhibition at 20 µg/mL (RAW264.7 [5]) | inhibition at 20 µg/mL (J774.A1 [6]) | inhibition at 20 µg/mL (RAW264.7 [7]) | inhibition at 20 µg/mL (J774.A1 [8])
4.50 | 4.47 | – | – | – | – | COC(=O)[C@]12CCC(C)(C)C[C@H]1C1=CC[C@@H]3[C@@]4(C)CCC(=O)C(C)(C)[C@@H]4CC[C@@]3(C)[C@]1(C)CC2 | 4.10 | 4.08 | – | – | – | –
5.32 | 4.80 | – | – | – | – | CNC(=O)[C@]12CCC(C)(C)C[C@H]1C1=CC[C@@H]3[C@@]4(C)Cc5c([nH]c6ccccc56)C(C)(C)[C@@H]4CC[C@@]3(C)[C@]1(C)CC2 | 4.04 | 4.04 | 43.7% | 40.3% | 13.3% | 11.8%
4.38 | 4.45 | – | – | – | – | CC1(C)CC[C@]2(C(=O)O)CC[C@]3(C)C(=CC[C@@H]4[C@@]5(C)CC[C@H](O)C(C)(C)[C@@H]5CC[C@]43C)[C@@H]2C1 [OLEANOLIC_ACID] | 4.05 | 4.06 | – | – | – | –
4.86 | 4.77 | – | – | – | – | CC(=O)O[C@H]1CC[C@]2(C)[C@H]3CC=C4[C@@H]5CC(C)(C)CC[C@]5(C(=O)O)CC[C@@]4(C)[C@]3(C)CC[C@H]2C1(C)C [ACETYL OLEANOLIC ACID] | 4.10 | 4.10 | 38.7% | 33.1% | 22.8% | 21.1%
4.41 | 4.41 | – | – | – | – | CC1(C)CC[C@]2(C(=O)O)CC[C@]3(C)C(=CC[C@@H]4[C@@]5(C)CCC(=O)C(C)(C)[C@@H]5CC[C@]43C)[C@@H]2C1 [OLEANONIC ACID] | 4.05 | 4.06 | – | – | – | –
– | 4.73 | 1.25 µg/mL (≈ 3.39 µM) | 2.08 µg/mL (≈ 5.65 µM) | 6.44 µg/mL (≈ 17.5 µM) | 24.8 µg/mL (≈ 67.4 µM) | COc1cc(/C=C/C(=O)CC(=O)/C=C/c2ccc(O)c(OC)c2)ccc1O [CURCUMIN] | – | – | – | – | – | –
– | – | 0.016 µg/mL (≈ 0.0408 µM) | 0.165 µg/mL (≈ 0.42 µM) | 1.84 µg/mL (≈ 4.69 µM) | 9.09 µg/mL (≈ 23.2 µM) | C[C@@H]1C[C@H]2[C@@H]3CCC4=CC(=O)C=C[C@]4(C)[C@@]3(F)[C@@H](O)C[C@]2(C)[C@@]1(O)C(=O)CO [DEXAMETHASONE] | – | – | – | – | – | –
4.78 | 4.75 | – | – | – | – | CC1(C)CC[C@]2(C(=O)NN)CC[C@]3(C)C(=CC[C@@H]4[C@@]5(C)Cc6c([nH]c7ccccc67)C(C)(C)[C@@H]5CC[C@]43C)[C@@H]2C1 | 4.03 | 4.04 | 31.2% | 27.9% | 13.9% | 11.1%

Further lines, the compound ahead of its results:

SMILES | pIC50 (RAW264.7 [1]) | pIC50 (J774.A1 [2]) | IC50 (RAW264.7 [9]) | IC50 (J774.A1 [10]) | IC50 (RAW264.7 [11]) | IC50 (J774.A1 [12]) | pIC50 (RAW264.7 [3]) | pIC50 [4] | inhibition at 20 µg/mL (RAW264.7 [5]) | inhibition at 20 µg/mL (J774.A1 [6]) | inhibition at 20 µg/mL (RAW264.7 [7]) | inhibition at 20 µg/mL (J774.A1 [8])
Cc1ccc(NC(=O)[C@]23CCC(C)(C)C[C@H]2C2=CC[C@@H]4[C@@]5(C)Cc6c([nH]c7ccccc67)C(C)(C)[C@@H]5CC[C@@]4(C)[C@]2(C)CC3)cc1 | 4.65 | 4.58 | – | – | – | – | 4.10 | 4.08 | – | – | – | –
CC1(C)CC[C@]2(C(=O)NCc3ccccc3)CC[C@]3(C)C(=CC[C@@H]4[C@@]5(C)Cc6c([nH]c7ccccc67)C(C)(C)[C@@H]5CC[C@]43C)[C@@H]2C1 | 4.62 | 4.74 | – | – | – | – | 4.03 | 4.03 | – | – | – | –
CC1(C)CC[C@]2(C(=O)O)CC[C@]3(C)C(=CC[C@@H]4[C@@]5(C)Cc6c([nH]c7ccccc67)C(C)(C)[C@@H]5CC[C@]43C)[C@@H]2C1 | 4.73 | 4.68 | – | – | – | – | 4.10 | 4.08 | – | – | – | –
CC1(C)CC[C@]2(C(=O)NC3CCCCC3)CC[C@]3(C)C(=CC[C@@H]4[C@@]5(C)Cc6c([nH]c7ccccc67)C(C)(C)[C@@H]5CC[C@]43C)[C@@H]2C1 | 5.58 | 4.97 | – | – | – | – | 4.02 | 4.01 | 47.8% | 51.9% | 37.5% | 31.7%
COC(=O)[C@@H](N)CCCNC(=N)N[N+](=O)[O-] [L-NAME] | – | 4.14 | – | – | – | – | – | – | – | – | – | –
CC1(C)CC[C@]2(C(=O)O)CC[C@]3(C)C(=CC[C@@H]4[C@@]5(C)CC/C(=N\O)C(C)(C)[C@@H]5CC[C@]43C)[C@@H]2C1 | 4.41 | 4.38 | – | – | – | – | 4.08 | 4.07 | – | – | – | –
CC1(C)CC[C@]2(C(=O)Cl)CC[C@]3(C)C(=CC[C@@H]4[C@@]5(C)Cc6c([nH]c7ccccc67)C(C)(C)[C@@H]5CC[C@]43C)[C@@H]2C1 | 4.64 | 4.60 | – | – | – | – | 4.06 | 4.05 | – | – | – | –
Cc1ccc(C)c(NC(=O)[C@]23CCC(C)(C)C[C@H]2C2=CC[C@@H]4[C@@]5(C)Cc6c([nH]c7ccccc67)C(C)(C)[C@@H]5CC[C@@]4(C)[C@]2(C)CC3)c1 | 4.63 | 4.53 | – | – | – | – | 4.08 | 4.07 | – | – | – | –
CC1(C)CC[C@]2(C(=O)Nc3ccc(Br)cc3)CC[C@]3(C)C(=CC[C@@H]4[C@@]5(C)Cc6c([nH]c7ccccc67)C(C)(C)[C@@H]5CC[C@]43C)[C@@H]2C1 | 4.60 | 4.56 | – | – | – | – | 4.07 | 4.06 | – | – | – | –
